Values joined by “and” are separate entries in the source; they are usually repeats but may differ in a detail not shown here. Equal entries are not always repeated. Toxic doses and inconclusive results are not listed. Rule as the data show it: active = T/C of 150% or more; inactive = T/C below 125%.
Tested on: L1210 leukemia ip in BDF1 mice, survival T/C
Experiment: NCI In Vivo Anticancer Drug Screen. Data for tumor model L1210 Leukemia (intraperitoneal) in B6D2F1 (BDF1) mice
Conditions: endpoint: mean survival time, higher = longer survival
Procedure, shortened: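 Mice bearing the transplanted tumor received compound or vehicle. Survival of the treated group was divided by that of the vehicle-treated control group to give the ratio.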

[1] = dose: 100.0 mg/kg/injection, schedule: Q04DX002 (ip), vehicle: carboxymethylcellulose (CMC)
[2] = dose: 100.0 mg/kg/injection, schedule: Q01DX009 (ip), vehicle: saline with Tween-80
[3] = dose: 200.0 mg/kg/injection, schedule: Q01DX009 (ip), vehicle: saline with Tween-80
[4] = dose: 400.0 mg/kg/injection, schedule: Q01DX009 (ip), vehicle: saline with Tween-80
[5] = dose: 100.0 mg/kg/injection, schedule: Q04DX002 (ip), vehicle: saline
[6] = dose: 200.0 mg/kg/injection, schedule: Q04DX002 (ip), vehicle: saline
[7] = dose: 400.0 mg/kg/injection, schedule: Q04DX002 (ip), vehicle: saline

Measured: T/C

O=S(=O)(F)c1ccc(C[P+](c2ccccc2)(c2ccccc2)c2ccccc2)cc1Cl
inactive: dose: 12.5 mg/kg/injection, schedule: Q01DX001 (ip), vehicle: carboxymethylcellulose (CMC) 103 % of control | dose: 12.5 mg/kg/injection, schedule: Q01DX009 (ip), vehicle: carboxymethylcellulose (CMC) 113 % of control and 117 % of control | dose: 12.5 mg/kg/injection, schedule: Q04DX002 (ip), vehicle: carboxymethylcellulose (CMC) 97 % of control and 100 % of control | dose: 25.0 mg/kg/injection, schedule: Q01DX001 (ip), vehicle: carboxymethylcellulose (CMC) 99 % of control | dose: 25.0 mg/kg/injection, schedule: Q01DX009 (ip), vehicle: carboxymethylcellulose (CMC) 97 % of control and 98 % of control | dose: 25.0 mg/kg/injection, schedule: Q04DX002 (ip), vehicle: carboxymethylcellulose (CMC) 100 % of control and 103 % of control | dose: 25.0 mg/kg/injection, schedule: Q04DX003 (ip), vehicle: carboxymethylcellulose (CMC) 96 % of control and 102 % of control | dose: 50.0 mg/kg/injection, schedule: Q01DX001 (ip), vehicle: carboxymethylcellulose (CMC) 99 % of control and 101 % of control and 107 % of control | dose: 50.0 mg/kg/injection, schedule: Q01DX009 (ip), vehicle: carboxymethylcellulose (CMC) 98 % of control and 103 % of control | dose: 50.0 mg/kg/injection, schedule: Q04DX002 (ip), vehicle: carboxymethylcellulose (CMC) 100 % of control and 110 % of control | dose: 50.0 mg/kg/injection, schedule: Q04DX003 (ip), vehicle: carboxymethylcellulose (CMC) 102 % of control and 105 % of control | [1] 101 % of control and 91 % of control | dose: 100.0 mg/kg/injection, schedule: Q04DX003 (ip), vehicle: carboxymethylcellulose (CMC) 102 % of control and 104 % of control

O=C(OC1C2C=CC1C1C(=O)NC21)c1ccccc1 (stereo unspecified)
inactive: dose: 75.0 mg/kg/injection, schedule: Q01DX001 (ip), vehicle: carboxymethylcellulose (CMC) 97 % of control | dose: 150.0 mg/kg/injection, schedule: Q01DX001 (ip), vehicle: carboxymethylcellulose (CMC) 102 % of control | dose: 300.0 mg/kg/injection, schedule: Q01DX001 (ip), vehicle: carboxymethylcellulose (CMC) 113 % of control

CCCCC(=O)C(OC)OC
inactive: [2] 119 % of control | [3] 95 % of control | [4] 92 % of control

CCCCCCCCC(=O)Cl
inactive: [5] 100 % of control | [6] 100 % of control | [7] 103 % of control

C/C=C/C=C\COC(=O)c1ccccc1OCC
inactive: [5] 98 % of control and 107 % of control | [6] 101 % of control and 109 % of control | [7] 109 % of control | dose: 800.0 mg/kg/injection, schedule: Q04DX002 (ip), vehicle: saline 106 % of control

C[N+]1(Cc2ccccc2)CCC2(C(N)=O)CC1Cc1ccccc12 (stereo unspecified)
inactive: dose: 75.0 mg/kg/injection, schedule: Q01DX001 (ip), vehicle: other 105 % of control | dose: 150.0 mg/kg/injection, schedule: Q01DX001 (ip), vehicle: other 100 % of control | dose: 300.0 mg/kg/injection, schedule: Q01DX001 (ip), vehicle: other 93 % of control

CCN(C(=O)Nc1ccc(F)c(Cl)c1)c1ccc(Cl)cc1
inactive: dose: 50.0 mg/kg/injection, schedule: Q01DX009 (ip), vehicle: saline with Tween-80 100 % of control | [2] 96 % of control | [3] 96 % of control

CC(=O)OCC(=O)[C@@]1(O)CC[C@H]2[C@@H]3CCC4=CC(=O)CC[C@]4(C)[C@H]3C(=O)C[C@@]21C
inactive: dose: 12.5 mg/kg/injection, schedule: Q01DX015 (sc), vehicle: steriod suspending solution 102 % of control | dose: 25.0 mg/kg/injection, schedule: Q01DX015 (sc), vehicle: steriod suspending solution 100 % of control | dose: 50.0 mg/kg/injection, schedule: Q01DX015 (sc), vehicle: steriod suspending solution 100 % of control | dose: 100.0 mg/kg/injection, schedule: Q01DX001 (sc), vehicle: steriod suspending solution 101 % of control | dose: 100.0 mg/kg/injection, schedule: Q01DX015 (sc), vehicle: steriod suspending solution 107 % of control | dose: 100.0 mg/kg/injection, schedule: Q04DX003 (sc), vehicle: steriod suspending solution 108 % of control | dose: 200.0 mg/kg/injection, schedule: Q01DX001 (sc), vehicle: steriod suspending solution 92 % of control | dose: 200.0 mg/kg/injection, schedule: Q01DX015 (sc), vehicle: steriod suspending solution 110 % of control | dose: 200.0 mg/kg/injection, schedule: Q04DX003 (sc), vehicle: steriod suspending solution 102 % of control | dose: 400.0 mg/kg/injection, schedule: Q01DX001 (sc), vehicle: steriod suspending solution 111 % of control | dose: 400.0 mg/kg/injection, schedule: Q01DX015 (sc), vehicle: steriod suspending solution 104 % of control | dose: 400.0 mg/kg/injection, schedule: Q04DX003 (sc), vehicle: steriod suspending solution 98 % of control

Cc1ccc(S(=O)(=O)OCC(COS(=O)(=O)c2ccc(C)cc2)(COS(=O)(=O)c2ccc(C)cc2)COS(=O)(=O)c2ccc(C)cc2)cc1
inactive: dose: 50.0 mg/kg/injection, schedule: Q04DX002 (ip), vehicle: Klucel (hydroxypropylcellulose) (HPC) 97 % of control | dose: 100.0 mg/kg/injection, schedule: Q04DX002 (ip), vehicle: Klucel (hydroxypropylcellulose) (HPC) 93 % of control and 105 % of control | dose: 200.0 mg/kg/injection, schedule: Q04DX002 (ip), vehicle: Klucel (hydroxypropylcellulose) (HPC) 102 % of control | dose: 400.0 mg/kg/injection, schedule: Q04DX002 (ip), vehicle: Klucel (hydroxypropylcellulose) (HPC) 110 % of control

CC(CN(C)C)CN1c2ccccc2CCc2ccccc21 (stereo unspecified)
inactive: dose: 4.37 mg/kg/injection, schedule: Q01DX009 (ip), vehicle: saline 101 % of control | dose: 8.75 mg/kg/injection, schedule: Q01DX009 (ip), vehicle: saline 101 % of control | dose: 17.5 mg/kg/injection, schedule: Q01DX009 (ip), vehicle: saline 98 % of control | dose: 17.5 mg/kg/injection, schedule: Q04DX003 (ip), vehicle: saline 102 % of control | dose: 35.0 mg/kg/injection, schedule: Q01DX009 (ip), vehicle: saline 107 % of control | dose: 35.0 mg/kg/injection, schedule: Q04DX003 (ip), vehicle: saline 102 % of control | dose: 70.0 mg/kg/injection, schedule: Q04DX003 (ip), vehicle: saline 104 % of control

CN=C(NN)Nc1ccccc1
inactive: dose: 87.5 mg/kg/injection, schedule: Q04DX003 (ip), vehicle: saline 96 % of control | dose: 175.0 mg/kg/injection, schedule: Q04DX003 (ip), vehicle: saline 104 % of control | dose: 350.0 mg/kg/injection, schedule: Q04DX003 (ip), vehicle: saline 93 % of control

Cc1cc(S(=O)(=O)c2cc(C)c(O)c(C(=O)O)c2)cc(C(=O)O)c1O
inactive: [1] 95 % of control | dose: 200.0 mg/kg/injection, schedule: Q04DX002 (ip), vehicle: carboxymethylcellulose (CMC) 98 % of control

Cc1cc(C)c(NC(=O)Nc2ccc(C(Cl)(Cl)Cl)cc2)c(C)c1
inactive: dose: 100.0 mg/kg/injection, schedule: Q01DX009 (ip), vehicle: Klucel (hydroxypropylcellulose) (HPC) 95 % of control | dose: 200.0 mg/kg/injection, schedule: Q01DX009 (ip), vehicle: Klucel (hydroxypropylcellulose) (HPC) 98 % of control | dose: 400.0 mg/kg/injection, schedule: Q01DX009 (ip), vehicle: Klucel (hydroxypropylcellulose) (HPC) 94 % of control

COc1cc2c(cc1OC)C1Cc3cc(OC)c(OC)cc3C(C2)N1
inactive: dose: 75.0 mg/kg/injection, schedule: Q01DX001 (ip), vehicle: saline 97 % of control | dose: 150.0 mg/kg/injection, schedule: Q01DX001 (ip), vehicle: saline 97 % of control | dose: 300.0 mg/kg/injection, schedule: Q01DX001 (ip), vehicle: saline 97 % of control

CC(=O)OCC1OC(N2C(=O)/C(=C/c3cccnc3)SC2=S)C(OC(C)=O)C(OC(C)=O)C1OC(C)=O (stereo unspecified)
inactive: dose: 25.0 mg/kg/injection, schedule: Q01DX005 (ip), vehicle: other 94 % of control | dose: 50.0 mg/kg/injection, schedule: Q01DX005 (ip), vehicle: other 96 % of control | dose: 100.0 mg/kg/injection, schedule: Q01DX005 (ip), vehicle: other 96 % of control | dose: 200.0 mg/kg/injection, schedule: Q01DX005 (ip), vehicle: other 105 % of control

COc1ccc(COC(=O)Oc2ccc(C#N)cc2)cc1OC
inactive: dose: 100.0 mg/kg/injection, schedule: Q04DX003 (ip), vehicle: saline with Tween-80 106 % of control | dose: 200.0 mg/kg/injection, schedule: Q04DX003 (ip), vehicle: saline with Tween-80 96 % of control | dose: 400.0 mg/kg/injection, schedule: Q04DX003 (ip), vehicle: saline with Tween-80 93 % of control

CC(=O)Oc1c(Br)c(-c2cc([N+](=O)[O-])c(C)c([N+](=O)[O-])c2C)c(OC(C)=O)c(Br)c1-c1cc([N+](=O)[O-])c(C)c([N+](=O)[O-])c1C
inactive: [2] 104 % of control | [3] 91 % of control | [4] 88 % of control

Source: PubChem BioAssay AID248 (DTP/NCI, 2004)
